Source: patent US20030087395A1, “Cardiotrophin-like cytokine” (Human Genome Sciences, Inc., priority 1997, published 2003)

B1: IL-11: gp130 family ligand (Pleiotropic) (protein, UniProt P20809 22-199, looked up)
Interleukin-11: PGPPPGPPRVSPDPRAELDSTVLLTRSLLADTRQLAAQLRDKFPADGDHNLDSLPTLAMSAGALGALQLPGVLTRLRADLLSYLRHVQWLRRAGGSSLKTLEPELGTLQARLDRLLRRLQLLMSRLALPQPPPDPPAPPLAPPSSAWGGIRAAHAILGGLHLTLDWAVRGLLLLKTRL
B2: OnM: gp130 family ligand (Pleiotropic) (protein, UniProt P13725 26-221, looked up)
Oncostatin-M: AAIGSCSKEYRVLLGQLQKQTDLMQDTSRLLDPYIRIQGLDVPKLREHCRERPGAFPSEETLRGLGRRGFLQTLNATLGCVLHRLADLEQRLPKAQDLERSGLNIEDLEKLQMARPNILGLRNNIYCMAQLLDNSDTAEPTKAGRGASQPPTPTPASDAFQRKLEGCRFLHGYHRFMHSVGRVFSKWGESPNRSRR
B3: CNTF: gp130 family ligand (Pleiotropic) (protein)
chain: MAFTEHSPLTPHRRDLCSRSIWLARKIRSDLTALTESYVKHQGLNKNINLDSADGMPVASTDQWSELTEAERLQENLQAYRTFHVLLARLLEDQQVHFTPTEGDFHQAIHTLLLQVAAFAYQIEELMILLEYKIPRNEADGMPINVGDGGLFEKKLWGLKVLQELSQWTVRSIHDLRFISSHQTGIPARGSHYIANNKKM
modifications: homo sapiens
B4: G-CSF: gp130 family ligand (Pleiotropic) (protein, UniProt P09919 31-207, looked up)
Granulocyte …: TPLGPASSLPQSFLLKCLEQVRKIQGDGAALQEKLVSECATYKLCHPEELVLLGHSLGIPWAPLSSCPSQALQLAGCLSQLHSGLFLYQGLLQALEGISPELGPTLDTLQLDVADFATTIWQQMEELGMAPALQPTQGAMPAFASAFQRRAGGVLVASHLQSFLEVSYRVLRHLAQP
B5: IL-12: gp130 family ligand (Pleiotropic) (protein, UniProt P29459 23-219; P29460 23-328, looked up)
Interleukin-12 subunit alpha: RNLPVATPDPGMFPCLHHSQNLLRAVSNMLQKARQTLEFYPCTSEEIDHEDITKDKTSTVEACLPLELTKNESCLNSRETSFITNGSCLASRKTSFMMALCLSSIYEDLKMYQVEFKTMNAKLLMDPKRQIFLDQNMLAVIDELMQALNFNSETVPQKSSLEEPDFYKTKIKLCILLHAFRIRAVTIDRVMSYLNAS
Interleukin-12 subunit beta: IWELKKDVYVVELDWYPDAPGEMVVLTCDTPEEDGITWTLDQSSEVLGSGKTLTIQVKEFGDAGQYTCHKGGEVLSHSLLLLHKKEDGIWSTDILKDQKEPKNKTFLRCEAKNYSGRFTCWWLTTISTDLTFSVKSSRGSSDPQGVTCGAATLSAERVRGDNKEYEYSVECQEDSACPAAEESLPIEVMVDAVHKLKYENYTSSFFIRDIIKPDPPKNLQLKPLKNSRQVEVSWEYPDTWSTPHSYFSLTFCVQVQGKSKREKKDRVFTDKTSATVICRKNASISVRAQDRYYSSSWSEWASVPCS
B6: IL-4: g-C family ligand (lymph/myeloid) (protein, UniProt P05112 25-153, looked up)
Interleukin-4: HKCDITLQEIIKTLNSLTEQKTLCTELTVTDIFAASKNTTEKETFCRAATVLRQFYSHHEKDTRCLGATAQQFHRHKQLIRFLKRLDRNLWGLAGLNSCPVKEANQSTLENFLERLKTIMREKYSKCSS
B7: IL-7: g-C family ligand (lymphocytes) (protein, UniProt P13232 26-177, looked up)
Interleukin-7: DCDIEGKDGKQYESVLMVSIDQLLDSMKEIGSNCLNNEFNFFKRHICDANKEGMFLFRAARKLRQFLKMNSTGDFDLHLLKVSEGTTILLNCTGQVKGRKPAALGEAQPTKSLEENKSLKEQKKLNDLCFLKRLLQEIKTCWNKILMGTKEH
B8: CSF-1: ligand of Receptor Tyrosine Kinases (protein, UniProt P09603 33-554, looked up)
Macrophage colony-stimulating …: EEVSEYCSHMIGSGHLQSLQRLIDSQMETSCQITFEFVDQEQLKDPVCYLKKAFLLVQDIMEDTMRFRDNTPNAIAIVQLQELSLRLKSCFTKDYEEHDKACVRTFYETPLQLLEKVKNVFNETKNLLDKDWNIFSKNCNNSFAECSSQDVVTKPDCNCLYPKAIPSSDPASVSPHQPLAPSMAPVAGLTWEDSEGTEGSSLLPGEQPLHTVDPGSAKQRPPRSTCQSFEPPETPVVKDSTIGGSPQPRPSVGAFNPGMEDILDSAMGTNWVPEEASGEASEIPVPQGTELSPSRPGGGSMQTEPARPSNFLSASSPLPASAKGQQPADVTGTALPRVGPVRPTGQDWNHTPQKTDHPSALLRDPPEPGSPRISSLRPQGLSNPSTLSAQPQLSRSHSSGSVLPLGELEGRRSTRDRRSPAEPEGGPASEGAARPLPRFNSVPLTDTGHERQSEGSFSPQLQESVFHLLVPSVILVLLAVGGLLFYRWRRRSHQEPQRADSPLEQPEGSPLTQDDRQVELPV
B9: IL-10: ligand of the IFN family in the Jaks-STATs table (protein, UniProt P22301 19-178, looked up)
Interleukin-10: SPGQGTQSENSCTHFPGNLPNMLRDLRDAFSRVKTFFQMKDQLDNLLLKESLLEDFKGYLGCQALSEMIQFYLEEVMPQAENQDPDIKAHVNSLGENLKTLRLRLRRCHRFLPCENKSKAVEQVKNAFNKLQEKGIYKAMSEFDIFINYIEAYMTMKIRN

Key:
STATS = conditions: numbers of the STATs activated; adapted from Schidler and Darnell review; cited from earlier work
GAS or ISRE = conditions: element bound; adapted from Schidler and Darnell review; cited from earlier work
[1] = tested on: primary neuronal cultures (sympathetic neuron counts); experiment: Neuron counts in primary neuronal cultures; assay type: cell-based; conditions: counted 48 to 72 hours post-treatment; four fields in three independent cultures, averaged
Protocol: (§1) Primary cardiomyocytes, primary neuronal cultures, or other cells are plated at a low density and cultured using standard culturing techniques. […] Cultures are evaluated at a point between 48 and 72 hours post-treatment by counting the number of cells in four non-overlapping fields in three independent cultures and averaging the results.

Primary cardiomyocytes = experiment: Cardiac myocyte hypertrophy, cell counts in culture; assay type: cell-based; conditions: counted 48 to 72 hours post-treatment; four fields in three independent cultures, averaged
Protocol: as §1

Molecule | STATS (STATS) | GAS or ISRE (GAS or ISRE) | No. Neurons [1] | No. Active Myocytes (Primary cardiomyocytes)
GH: Growth hormone family ligand | 5 |  |  | 
IL-5: gp140 family ligand (myeloid) | 5 | GAS |  | 
CNC[C@H](O)c1cccc(O)c1 [Phenylephrine, reference compound] |  |  | 28 | 92
IL-15: g-C family ligand | 5 | GAS |  | 
IL-9: g-C family ligand (lymphocytes) | 5 | GAS |  | 
PDGF | 1,3 |  |  | 
GM-CSF: gp140 family ligand (myeloid) | 5 | GAS |  | 
IL-6: gp130 family ligand (Pleiotropic) | 1,3 | GAS |  | 
IL-13: g-C family ligand (lymphocyte) | 6 | GAS |  | 
EGF: ligand of Receptor Tyrosine Kinases | 1,3 | GAS (IRF1) |  | 
B1 | 1,3 |  |  | 
B2 | 1,3 |  |  | 
B3 | 1,3 |  |  | 
B4 | 1,3 |  |  | 
B5 | 1,3 |  |  | 
B6 | 6 | GAS |  | 
B7 | 5 | GAS |  | 
B8 | 1,3 | GAS (not |  | 
B9 | 1,3 |  |  | 
